The values that follow come from US20110245223A1, “HETEROCYCLIC COMPOUNDS” (Japan Tobacco Inc., priority 2005, published 2011).

This assay addresses T1, human HSD-1 (recombinant HSD-1) (Homo sapiens, UniProt P28845).
T1 construct: made in house
Description: HSD-1 (hydroxysteroid dehydrogenase 1) activity inhibitory action in vitro, SPA, conversion of cortisone to cortisol. Type of assay: biochemical. The settings on record: recombinant human HSD-1 expressed using baculovirus system, 10 nM 3H cortisone, 500 μM NADPH, room temperature 90 to 120 min, read-out: hHSD1 (IC50 (nM)).

T1 sequence (P28845 whole entry): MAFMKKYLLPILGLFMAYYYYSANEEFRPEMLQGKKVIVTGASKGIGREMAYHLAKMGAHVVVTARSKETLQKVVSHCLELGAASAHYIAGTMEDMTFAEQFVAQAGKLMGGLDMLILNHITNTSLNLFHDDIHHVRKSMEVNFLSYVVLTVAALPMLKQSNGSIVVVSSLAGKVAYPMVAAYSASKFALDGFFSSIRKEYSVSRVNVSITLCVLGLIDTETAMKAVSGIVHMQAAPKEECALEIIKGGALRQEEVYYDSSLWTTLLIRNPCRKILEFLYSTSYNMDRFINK

The term IC50 denotes the concentration that inhibits the measured activity by half. On to `O=C(OCCO)N1CCC(n2ncc(C(=O)N3CC[C@@H](c4ccccc4C(F)(F)F)C3)c2C2CC2)CC1` [Example 58, 1-{5-cyclopropyl-1-[1-(2-hydroxyethoxycarbonyl)piperidin-4-yl]-1H-pyrazole-4-carbonyl}-[(S)-3-(2-trifluoromethylphenyl)]pyrrolidine], for which the IC50 was below 30 nM.
